Results on seven molecules are retold here after US7053057B2, “Caspase inhibitors and uses thereof” (Vertex Pharmaceuticals Incorporated, priority 2000, dated 2006).

For orientation: IC50 means the concentration that gives 50% inhibition.

The subject of one experiment is cortical neurons. Put plainly: Hypoxia-induced apoptosis of cortical neurons assay. Type of experiment: cell-based, Wistar rat. Particulars: Cortical neurone; rat embryo cortical neurons, hypoxia 42 hours, DNA fragmentation ELISA. The procedure:
Apoptosis can be induced by growth factor withdrawal and by hypoxia. This assay measures the extent of DNA fragmentation indicating the effectiveness of caspase inhibitors to prevent apoptosis. Experimental Procedure Cortical neurons were dissociated from Wistar rat embryos (E17) by a modification of the procedure of Rogers et al 1997, Brain Res Bulletin 44:131. Cerebral cortices were isolated aseptically from 15–20 Wistar rat embryos. A cell suspension was prepared by mincing the cerebral cortices and digesting them with papain. Cells were washed with ovomucoid enzyme inhibitor and DNaseI and plated onto Poly D lysine coated plates in high glucose DMEM containing 10% heat-inactivated foetal calf serum, L-glutamine, penicillin and streptomycin. The yield of neurons was 10^7 per embryo and they were 80–90% viable as assessed by Trypan blue exclusion.
Cells were seeded at 1×10^6 cells per cm^2 in 96-well plates and cultured in complete medium (in high glucose DMEM containing 10% heat-inactivated foetal calf serum, L-glutamine, penicillin and streptomycin) at 37° C. in a normal atmosphere for 48 hours prior to the hypoxia experiments. Hypoxia was performed as described (Tamatani et al.1998, Molecular Brain Research, 58:27). The normal cell medium was replaced by hypoxic medium and cells were incubated in an atmosphere of 95% N2/5% CO2 for 42 hours. For compound testing, compounds were dissolved in DMSO at 100 mM then diluted in medium and added to the culture at the beginning of the hypoxic period. Apoptosis was measured using an ELISA assay to detect DNA fragmentation (Roche). Controls included cells cultured in aerobic conditions in serum-containing medium.

For experiment [1], the target named is recombinant, purified human Caspase-8 (Homo sapiens, UniProt Q14790). The experiment is described as follows: Caspase-8 enzyme inhibition assay (fluorogenic substrate cleavage). Particulars: second order rate constant of enzyme inactivation; substrate Acetyl-Asp-Glu-Val-Asp-amino-4-methylcoumarin. Type of experiment: biochemical. From the text: (§1) The assays for caspase inhibition are based on the cleavage of a fluorogenic substrate by recombinant, purified human Caspases -1, -3, or -8. The assays are run in essentially the same way as those reported by Garcia-Calvo et al. (J. Biol. Chem. 273 (1998), 32608–32613), using a substrate specific for each enzyme. The substrate for Caspase-1 is Acetyl-Tyr-Val-Ala-Asp-amino-4-methylcoumarin (SEQ ID NO:1). The substrate for Caspases -3, and -8 is Acetyl-Asp-Glu-Val-Asp-amino-4-methylcoumarin (SEQ ID NO:2).
Sequence of recombinant, purified human Caspase-8 (Q14790 217-374 limits assumed): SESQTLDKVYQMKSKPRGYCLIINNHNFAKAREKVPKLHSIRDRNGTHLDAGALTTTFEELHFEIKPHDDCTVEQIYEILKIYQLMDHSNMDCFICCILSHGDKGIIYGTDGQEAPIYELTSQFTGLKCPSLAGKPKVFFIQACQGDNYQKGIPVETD
Sequence of recombinant, purified human Caspase-8 (Q14790 385-479 limits assumed): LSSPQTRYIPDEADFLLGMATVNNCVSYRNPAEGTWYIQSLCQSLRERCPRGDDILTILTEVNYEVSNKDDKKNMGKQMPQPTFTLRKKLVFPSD
(§2) The observed rate of enzyme inactivation at a particular inhibitor concentration, kobs, is computed by direct fits of the data to the equation derived by Thornberry et al. (Biochemistry 33 (1994), […]) using a nonlinear least-squares analysis computer program (PRISM 2.0; GraphPad software). To obtain the second order rate constant, kinact, kobs values are plotted against their respective inhibitor concentrations and kinact values are subsequently calculated by computerized linear regression.

Experiment [2] concerns the target T1, recombinant, purified human Caspase-1 (Homo sapiens, UniProt P29466).
T1 sequence (P29466 120-297 limits assumed): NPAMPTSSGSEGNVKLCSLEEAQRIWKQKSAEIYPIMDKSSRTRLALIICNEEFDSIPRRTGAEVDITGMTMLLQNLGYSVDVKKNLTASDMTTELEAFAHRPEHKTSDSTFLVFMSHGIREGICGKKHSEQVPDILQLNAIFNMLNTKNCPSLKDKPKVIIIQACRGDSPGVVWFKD
T1 sequence (P29466 317-404 limits assumed): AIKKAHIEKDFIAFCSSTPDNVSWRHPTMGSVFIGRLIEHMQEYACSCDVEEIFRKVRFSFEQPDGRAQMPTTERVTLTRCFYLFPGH
The experiment is described as follows: Caspase-1 enzyme inhibition assay (fluorogenic substrate cleavage). Type of experiment: biochemical. Particulars: second order rate constant of enzyme inactivation; substrate Acetyl-Tyr-Val-Ala-Asp-amino-4-methylcoumarin.
Excerpt: as §1, §2

In experiment [3] the test system is IL-1β secretion from PBMC. The experiment is described as follows: Inhibition of IL-1β secretion from mixed population of PBMC. Type of experiment: cell-based. To be noted: human PBMC, LPS 50 ng/ml, 16–18 h, mature IL-1β in supernatant. The procedure:
Processing of pre-IL-1β by caspase-1 can be measured in cell culture using a variety of cell sources. Human PBMC obtained from healthy donors provides a mixed population of lymphocyte and mononuclear cells that produce a spectrum of interleukins and cytokines in response to many classes of physiological stimulators.
The test compound is dissolved in Dimethyl Sulphoxide (DMSO,Sigma #D-2650) to give a 100 mM stock solution. This is diluted in complete medium consisting of RPMI containing 10% heat inactivated FCS (Gibco BRL #10099-141), 2 mM L-Glutamine (Sigma, #G-7513), 100U penicillin and 100 μg/ml streptomycin (Sigma #P-7539). The final concentration range of test compound is from 100 μM down to 6 nM over eight dilution steps. The highest concentration of test compound is equivalent to 0.1% DMSO in the assay.
Human PBMC are isolated from Buffy Coats obtained from the blood bank using centrifugation on Ficoll-Paque leukocyte separation medium (Amersham, #17-1440-02) and the cellular assay is performed in a sterile 96 well flat-bottomed plate (Nunc). Each well contains 100 μl of the cell suspension, 1×10^5 cells, 50 µl of compound dilutions and 50 μl of LPS (Sigma #L-3012) at 50 ng/ml final concentration. Controls consist of cells +/−LPS stimulation and a serial dilution of DMSO diluted in the same way as compound. The plates are incubated for 16–18 h at 37° C. in 5% CO2 & 95% humidity atmosphere.
After 16–18 h the supernatants are harvested after centrifuging the plates at 100×g at 18° C. for 15 min and assayed for their IL-1β content. Measurement of mature IL-1[…] in the supernatant is performed using the Quantikine kits (R&D Systems) according to manufacturer's instructions. Mature IL-1β levels of about 600–1500 pg/ml are observed for PBMCs in positive control wells.
The inhibitory potency of the compounds can be represented by an IC50 value, which is the concentration of inhibitor at which 50% of the mature IL-1β is detected in the supernatant as compared to the positive controls.

In experiment [4] the target is T2, recombinant, purified human Caspase-3 (Homo sapiens, UniProt P42574).
T2 sequence (P42574 29-175 limits assumed): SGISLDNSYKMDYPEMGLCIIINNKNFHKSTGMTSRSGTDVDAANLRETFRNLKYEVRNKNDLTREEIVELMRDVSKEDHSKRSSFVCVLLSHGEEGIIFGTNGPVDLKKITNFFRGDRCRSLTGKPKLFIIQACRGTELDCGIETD
T2 sequence (P42574 176-277 limits assumed): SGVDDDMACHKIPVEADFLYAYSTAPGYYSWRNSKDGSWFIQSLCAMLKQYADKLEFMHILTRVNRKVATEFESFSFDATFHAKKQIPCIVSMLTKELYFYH
The experiment is described as follows: Caspase-3 enzyme inhibition assay (fluorogenic substrate cleavage). Type of experiment: biochemical. To be noted: second order rate constant of enzyme inactivation; substrate Acetyl-Asp-Glu-Val-Asp-amino-4-methylcoumarin. From the text:
The assays for caspase inhibition are based on the cleavage of a fluorogenic substrate by recombinant, purified human Caspases -1, -3, or -8.
To obtain the second order rate constant, kinact, kobs values are plotted against their respective inhibitor concentrations and kinact values are subsequently calculated by computerized linear regression.

Square brackets hold non-standard residues; d marks the D form. Peptide text beside a SMILES is read from it. * marks the point of attachment. Cbz = O=C(OCc1ccccc1)*; Thz = O=C(O)[CH]1CSCN1; CH2F = FC*

On to `CC(C)[C@H](NC(=O)OCc1ccc(Cl)cc1)C(=O)NC(CC(=O)O)C(=O)CF` (stereo partly drawn) [4-ClCbz-Val-Asp-fmk], for which the IC50 with cortical neurons is 1980 nM. For the same molecule, the “C-8 Kinact” value in experiment [1] is reported as 175 × 1000 M^−1s^−1. Moreover, the “C-1 Kinact” value in experiment [2] is recorded as 69 × 1000 M^−1s^−1.
As for `O=C(O)CC(NC(=O)C1CCCN1C(=O)OCc1ccccc1)C(=O)CF` (stereo not drawn) [Cbz-Pro-Asp-fmk] (Cbz-Pro-Asp-CH2F; configuration not given here), the half-inhibitory concentration (IC50) in the experiment on cortical neurons is 2780 nM; in experiment [3], more than 10000 nM. Besides, the “C-8 Kinact” value in experiment [1] was 15.5 × 1000 M^−1s^−1. Besides, in experiment [2], the “C-1 Kinact” value is listed as 7.5 × 1000 M^−1s^−1.
On the same counts, the results for `O=C(O)CC(NC(=O)C1CSCN1C(=O)OCc1ccccc1)C(=O)CF` (stereo not drawn) [Cbz-Thz-Asp-fmk] (Cbz-[Thz]-Asp-CH2F; configuration not given here) are 1560 nM, 2310 nM, 12 × 1000 M^−1s^−1 and 227.5 × 1000 M^−1s^−1.
`O=C(O)CC(NC(=O)[C@@H]1CCc2ccccc2N1C(=O)OCc1ccccc1)C(=O)CF` (stereo partly drawn) [Example 3, [3S/R,(2S)]-3-(1-Benzyloxycarbonyl-1,2,3,4-tetrahydro-quinolinyl-2-carboxamido)-5-fluoro-4-oxo-pentanoic acid]: the “C-3 Kinact” value in experiment [4] is listed as 239.5 × 1000 M^−1s^−1. Further, in experiment [1], the “C-8 Kinact” value is 122 × 1000 M^−1s^−1. In experiment [3], this molecule yielded an IC50 of 1150 nM. For the same molecule, the “C-1 Kinact” value in experiment [2] was 318 × 1000 M^−1s^−1.
In experiment [3], `O=C(O)CC(NC(=O)[C@@H]1CCCCN1C(=O)OCc1cccc(Cl)c1)C(=O)CF` (stereo partly drawn) [Example 5, [3S/R,(2S)]-3-(1-(3-Chlorobenzyloxycarbonyl)-2-piperidinecarboxamido)-5-fluoro-4-oxo-pentanoic acid] gave an IC50 of 500 nM. This lies in the sub-micromolar range.
As to `O=C(O)CC(NC(=O)[C@@H]1CCCCN1C(=O)OCc1cc(Cl)ccc1Cl)C(=O)CF` (stereo partly drawn) [Example 23, [3S/R,(2S)]-5-Fluoro-3-(1-(2,5-dichlorobenzyloxycarbonyl)-2-piperidinecarboxamido)-4-oxo-pentanoic acid], the half-maximal inhibitory concentration (IC50) in the experiment on cortical neurons came to 336 nM.
`O=C(O)CC(NC(=O)[C@@H]1CCCCN1C(=O)O[C@H](c1cccc(Cl)c1)C(F)(F)F)C(=O)CF` (stereo partly drawn) [Example 34]: the “C-3 Kinact” value in experiment [4] is given as 181 × 1000 M^−1s^−1. In the experiment on cortical neurons, this molecule returned a half-inhibitory concentration (IC50) of 463 nM. Also, the “C-8 Kinact” value in experiment [1] is listed as 839 × 1000 M^−1s^−1. Moreover, the “C-1 Kinact” value in experiment [2] is 518 × 1000 M^−1s^−1.
